Assay results as given in the OPERA property sets (Mansouri et al. 2018).

Conditions: for log10 BCF / log10 biotransformation half-life (days): fish

SMILES | boiling point [°C] | melting point [°C] | other results
C#CCCCCC#C | 136 |  | 
C#CCN1C(=O)COc2cc(F)c(N3C(=O)C4=C(CCCC4)C3=O)cc21 |  | 202 | 
O=P(O)(O)OCC(O)CO (configuration not stated) |  | -25 | 
CCN(CC)CC(O)CN (configuration not stated) | 223 |  | 
O=C(O)c1cc(Cl)ccc1Cl | 301 | 154 | ready biodegradability: not readily biodegradable
COc1ccc2c(c1O)-c1c3c(cc4c1[C@H](C2)N(C)CC4)OCO3 |  | 200 | 
CC(C(=O)O)c1ccc(C(=O)c2cccs2)cc1 (configuration not stated) |  | 124 | 
C=CC(=O)OCC(CC)CC |  | -70 | log10 vapour pressure (mmHg): 0.23
CCCCCCCCCCCCCCCCO | 334 | 49.3 | log10 Koa: 9.9; log10 vapour pressure (mmHg): -5.22; ready biodegradability: readily biodegradable
CCOC(=O)C(C(=O)OCC)=C(C)C | 176 |  | 
FC(F)(F)C(F)(F)C(F)(F)C(F)(F)F | -1.9 | -128 | log10 vapour pressure (mmHg): 3.3
C=Cc1ccc(Cl)cc1 | 192 | 15.9 | log10 vapour pressure (mmHg): -0.0885; ready biodegradability: not readily biodegradable
CCN(CC)C(=S)SC(=S)N(CC)CC |  | 31 | 
Cc1ccccc1Br | 182 | -27.8 | log10 vapour pressure (mmHg): 0.0186
C=C(C)C1CC=C(C)CC1 (configuration not stated) | 176 | -86.4 | log10 vapour pressure (mmHg): 0.215; ready biodegradability: readily biodegradable
Nc1nc(N)nc(N)n1 |  |  | log10 vapour pressure (mmHg): -9.44; ready biodegradability: not readily biodegradable; log10 BCF: 0.58
c1ccc2c(c1)-c1ccc3ccc4cccc5cc-2c1c3c45 | 536 | 164 | log10 Henry constant (atm·m³/mol): -6.46; log10 Koc (L/kg): 6.2; log10 biodegradation half-life (days): 2.52
O=C(O)CCCCCCCCCF |  | 49 | 
CCCCCCN(CCCCCC)CCCCCC | 262 |  | 
COC1CC1 | 44.7 | -119 | 
CCCCCCOC(=O)c1ccccc1 | 272 |  | 

SMILES | boiling point [°C] | melting point [°C] | other results
O[C@@H]1CC[C@H](O)C1 |  | 35.5 | 
FC(F)(F)C(F)(F)Cl | -37.9 | -99.4 | log10 vapour pressure (mmHg): 3.84
CCCCCC(=O)OCC(COC(=O)CCCCC)OC(=O)CCCCC |  | -60 | 
O=[N+]([O-])c1cc(Cl)ccc1Cl | 267 | 56 | log10 Henry constant (atm·m³/mol): -4.92; ready biodegradability: not readily biodegradable; log10 BCF: 2.05; log10 biotransformation half-life (days): 0.56
Nc1cc([N+](=O)[O-])ccc1Cl |  | 121 | 
O=[N+]([O-])c1cccc2ncccc12 |  | 74 | 
CCCCN(CCCC)CCCN | 205 |  | 
CCC(C)N (configuration not stated) | 62.8 | -104 | log10 vapour pressure (mmHg): 2.25; ready biodegradability: readily biodegradable
COc1cc(CCCO)ccc1O |  | 65 | 
CC(C(=O)O)c1cccc(C(=O)c2ccccc2)c1 (configuration not stated) |  | 94 | 
CC(=O)c1ccc(O)c(O)c1O |  | 173 | 
CC(=O)[C@@]1(C)CC[C@H]2[C@@H]3CCC4=CC(=O)CCC4=C3CC[C@@]21C |  | 106 | 
Cc1ccc(Cl)c(O)c1 | 213 | 50.8 | ready biodegradability: not readily biodegradable; log10 BCF: 0.67
Cc1ccccc1[N+](=O)[O-] | 222 | -10 | log10 Henry constant (atm·m³/mol): -4.9; log10 vapour pressure (mmHg): -0.726; ready biodegradability: not readily biodegradable; log10 BCF: 1.26; log10 biotransformation half-life (days): -0.48
CN=C=S | 119 | 36 | log10 Koc (L/kg): 0.97; log10 vapour pressure (mmHg): 0.549; ready biodegradability: not readily biodegradable
Nc1ccc2c(c1N)C(=O)c1ccccc1C2=O |  | 290 | 
CC(=O)Nc1ccccc1[N+](=O)[O-] |  | 94 | 
FC(Cl)C(F)Cl (configuration not stated) | 46.8 |  | 
CCC(CC)C(=O)OC | 137 |  | 
COC(=O)C(C)Cl (configuration not stated) | 132 |  | ready biodegradability: readily biodegradable
CNC(=S)NC |  | 62 | 

SMILES | boiling point [°C] | melting point [°C] | other results
CC1(C)O[C@H]2CC(=O)OC[C@]23[C@H]2CC[C@@]4(C)[C@H](c5ccoc5)OC(=O)[C@H]5O[C@]54[C@]2(C)C(=O)C[C@@H]13 |  | 298 | 
CCCOB(OCCC)OCCC | 180 |  | 
FC(Cl)(Br)Br | 80.3 |  | 
C=CC(=C)F | 12 |  | 
CO/C=C(/C(=O)OC)c1ccccc1Oc1cc(Oc2ccccc2C#N)ncn1 |  | 116 | log10 vapour pressure (mmHg): -12.1
Cc1ccccc1OC(=O)Oc1ccccc1C |  | 60 | 
COc1ccccc1CN | 229 |  | 
CCC1(C2=CCCCC2)C(=O)NC(=O)NC1=O |  | 173 | 
O=c1[nH]c(=O)n([C@H]2C[C@H](O)[C@@H](CO)O2)cc1I |  | 263 | 
FC(F)Cl | -40.7 | -157 | log10 Henry constant (atm·m³/mol): -1.39; log10 vapour pressure (mmHg): 3.86; ready biodegradability: not readily biodegradable
Cc1ccc2c(C)cccc2c1C |  | 33.5 | 
CS(=O)(=O)O.Cc1ccc(N(CC2=NCCN2)c2cccc(O)c2)cc1 |  | 181 | 
COc1ccc(C(O)(c2cncnc2)C2CC2)cc1 (configuration not stated) |  | 110 | log10 Henry constant (atm·m³/mol): -10.8; log10 Koc (L/kg): 2.08; log10 vapour pressure (mmHg): -6.7
CC1CC(C)(C)CCC1=O (configuration not stated) | 191 |  | 
NCCCCCC(=O)O |  | 205 | 
CN(C)[C@@H]1C(O)=C(C(N)=O)C(=O)[C@@]2(O)C(O)=C3C(=O)c4c(O)ccc(Cl)c4[C@@](C)(O)[C@H]3C[C@@H]12 |  | 168 | 
NCCNCCN | 207 | -39 | ready biodegradability: not readily biodegradable; log10 BCF: 0.65
ON=C(C(=NO)c1ccco1)c1ccco1 |  | 167 | 
Cc1ccc2[nH]cnc2c1 |  | 116 | 
CC(C)CS(=O)(=O)CC(C)C | 265 | 17 | 
